Laboratory results as given in patent publication US20250339547A1, “MET BCL-XL INHIBITOR ANTIBODY-DRUG CONJUGATES AND METHODS OF USE THEREOF” (Novartis AG, priority 2022, published 2025).
Non-standard residues stand in square brackets, D forms with d. Residues, ends and D or L forms follow the SMILES beside them. *: point of attachment. Dolaproine = CO[C@@H]([C@@H]1CCCN1)[C@@H](C)C(=O)O; Dil = CC[C@H](C)[C@H](NC)[C@@H](CC(=O)O)OC; X1 = C[C@@H](N*)[C@@H](O)c1ccccc1; NMeV = CN[C@H](C(=O)O)C(C)C

Columns and labels:
[1] = system: lymphoid malignancies; conditions: cited from earlier work
[2] = system: hematological malignancies and solid tumors; conditions: several hematological malignancies and solid tumors; cited from earlier work
[3] = system: H1650 xenografts; test: In vivo efficacy in combination with osimertinib in Met non amplified NCI-H1650 lung adenocarcinoma human cell model, Example 16; set-up: species or system SCID mice; conditions: osimertinib 15 mg/kg orally on day 1, 2, 3, 4, 7, 8, 9, alone
Source text: Below are the procedures for determining the in vivo therapeutic effect of different Bcl-xL ADCs targeting the Met protein as a single agent or in combination with osimertinib. Their activities are compared to the corresponding naked anti-Met mAbs or Ab G-L42C-P25 (Isotype control/non-targeting ADC) formulated in Phosphate-Buffered Saline (PBS) in a Met non amplified NCI-H1650 lung adenocarcinoma human cell line after intravenous (IV) administration.
NCI-H1650 cells, obtained from ATCC, were cultured in RPMI supplemented with 10% SBS, 1% Penicillin-Streptomycin and 1% HEPES. Cells were resuspended in 50% Matrigel® (Corning®) and 0.1 ml containing 10×10^6 cells were subcutaneously inoculated into the right flank of female SCID mice, provided by JANVIER labs.
When tumors reached the appropriate volume (100-200 mm3), mice were randomized, 6 animals per group, using Easy stat software. […]
Mice body weight was monitored 3 times a week and tumor size measured using electronic calipers. […] The last day with at least half of control animals still present in the study (d25), tumor growth inhibition was calculated using the formula: […]
With DTV (Delta Tumor Volume) at Dx, calculated being TV at Dx−TV at Randomization. […]

[4] = system: HCC366; test: Lung cancer cell line viability, single agent or 1:1 combination (CTG 120h), Example 7; type: cell-based; conditions: HCC366, CTG 120 h
Protocol: (§1) Cell lines were cultured in the media described above at 37° C. in a humidified atmosphere containing 5% CO2. Cells were seeded in 96 well clear bottom plates (96 well clear-bottom, white, Corning reference 3903) and exposed to the mAbs, mAbs mixture, ADCs or ADCs mixture as single agents or in 1:1 combination with Paclitaxel. When in 1:1 combination, both the combining partner (Paclitaxel) and the mAb, mAb mixture, ADC or ADC mixture were serially diluted (9 concentrations each, triplicates). Effect on cell viability was assessed after 5 days of incubation at 37° C./5% CO2 by quantification of cellular ATP levels using CellTiter-Glo reagent (Promega Ref: G7571) at 75 μL reagent/well. All the conditions were tested in triplicates. Luminescence was quantified on a multipurpose plate reader. IC50s were calculated using standard four-parametric curve fitting. IC50 is defined as the compound concentration at which the CTG signal is reduced to 50% of that measured for the control. Two independent experiments were performed (N1 and N2).

[5] = system: HCC4006; test: as above; type: cell-based; conditions: HCC4006, CTG 120 h
Protocol: as §1

[6] = system: HCC78; test: as above; type: cell-based; conditions: HCC78, CTG 120 h
Protocol: as §1

[7] = system: HCC827; test: as above; type: cell-based; conditions: HCC827, CTG 120 h
Protocol: as §1

[8] = system: CALU1; test: as above; type: cell-based; conditions: CALU1, CTG 120 h
Protocol: as §1

[9] = system: NCI-H1838; test: as above; type: cell-based; conditions: NCI-H1838, CTG 120 h
Protocol: as §1

[10] = system: LU65; test: as above; type: cell-based; conditions: LU65, CTG 120 h
Protocol: as §1

[11] = system: NCI-H441; test: as above; type: cell-based; conditions: NCI-H441, CTG 120 h
Protocol: as §1

[12] = system: NCI-H1975; test: as above; type: cell-based; conditions: NCI-H1975, CTG 120 h
Protocol: as §1

[13] = system: Panc 10.05; test: Pancreatic cancer cell line viability, single agent or 1:1 combination (CTG 120h), Example 10; type: cell-based; conditions: Homo sapiens, Panc1005, 120 h, Panc 10.05, CTG 120 h
Protocol: (§2) Cell lines were cultured in the media described above at 37° C. in a humidified atmosphere containing 5% CO2. Cells were seeded in 96 well clear bottom plates (96 well clear-bottom, white, Corning reference 3903) and exposed to the mAbs or ADCs as single agents or in 1:1 combination with Paclitaxel, Trametinib or Gemcitabine. When in 1:1 combination, both the combining partner (Paclitaxel, Trametinib or Gemcitabine) and the mAb or ADC were serially diluted (9 concentrations each, triplicates). Effect on cell viability was assessed after 5 days of incubation at 37° C./5% CO2 by quantification of cellular ATP levels using CellTiter-Glo reagent (Promega Ref: G7571) at 75 μL reagent/well. All the conditions were tested in triplicates. Luminescence was quantified on a multipurpose plate reader. IC50s were calculated using standard four-parametric curve fitting. IC50 is defined as the compound concentration at which the CTG signal is reduced to 50% of that measured for the control. Two independent experiments were performed (N1 and N2).

[14] = system: AsPC-1; test: as above; type: cell-based; conditions: Homo sapiens, ASPC1, 120 h, AsPC-1, CTG 120 h
Protocol: as §2

[15] = system: KP-4; test: as above; type: cell-based; conditions: Homo sapiens, KP-4, 120 h, KP-4, CTG 120 h
Protocol: as §2

[16] = system: Hs766T; test: as above; type: cell-based
Protocol: as §2

[17] = system: BxPC-3; test: as above; type: cell-based; conditions: Homo sapiens, BXPC-3, 120 h, BxPC-3, CTG 120 h
Protocol: as §2

[18] = system: pancreatic cancer cell lines; test: Pancreatic cancer cell line panel of Example 10 (CTG 120h); type: cell-based; conditions: pancreatic cancer cell lines of Table 16, single agents
Protocol: Cell lines were cultured in the media described above at 37° C. in a humidified atmosphere containing 5% CO2. […] When in 1:1 combination, both the combining partner (Paclitaxel, Trametinib or Gemcitabine) and the mAb or ADC were serially diluted (9 concentrations each, triplicates). Effect on cell viability was assessed after 5 days of incubation at 37° C./5% CO2 by quantification of cellular ATP levels using CellTiter-Glo reagent (Promega Ref: G7571) at 75 μL reagent/well. All the conditions were tested in triplicates. Luminescence was quantified on a multipurpose plate reader. IC50s were calculated using standard four-parametric curve fitting. […] Two independent experiments were performed (N1 and N2).

[19] = system: T-ALL (T-cell Acute Lymphoblastic Leukemia) and different types of solid tumors; conditions: cited from earlier work
[20] = system: allogeneic T-cell; conditions: in vitro; cited from earlier work
[21] = system: lymphocyte proliferation; conditions: in vitro; cited from earlier work
[22] = system: arthritis and lupus; conditions: mice, animal models of arthritis and lupus; cited from earlier work
[23] = system: allogeneic T- and B-cell responses; conditions: after skin transplantation; cited from earlier work

Q: Which “antitumor activity in clinical studies” value [1] does the source give for `CC1(C)CCC(c2ccc(Cl)cc2)=C(CN2CCN(c3ccc(C(=O)NS(=O)(=O)c4ccc(N[C@H](CCN5CCOCC5)CSc5ccccc5)c(S(=O)(=O)C(F)(F)F)c4)cc3)CC2)C1` [ABT-263, navitoclax] here?
A: objective antitumor activity

Q: What about the “activity in pre-clinical models” value [2] of the same molecule?
A: has shown activity

Q: For `C=CC(=O)Nc1cc(Nc2nccc(-c3cn(C)c4ccccc34)n2)c(OC)cc1N(C)CCN(C)C` [Osimertinib, osimertinib], which “TGI % (d 25)” value [3] is on record?
A: 86.3%

Q: Which results are given for `CC[C@H](C)[C@@H]([C@@H](CC(=O)N1CCC[C@H]1[C@H](OC)[C@@H](C)C(=O)N[C@H](C)[C@@H](O)c1ccccc1)OC)N(C)C(=O)[C@@H](NC(=O)[C@@H](NC)C(C)C)C(C)C` [MMAE, monomethyl auristatin E] (H-[NMeV]V[Dil][Dolaproine]-X1)?
A: IC50 ([4]; Mean): 0.645 nM; IC50 ([4]; n1): 0.53 nM; IC50 ([4]; n2): 0.76 nM; IC50 ([5]; Mean): 0.19 nM; IC50 ([5]; n1): 0.12 nM; IC50 ([5]; n2): 0.26 nM; IC50 ([6]; Mean): 0.57 nM; IC50 ([6]; n1): 0.54 nM; IC50 ([6]; n2): 0.6 nM; IC50 ([7]; Mean): 1.3 nM; IC50 ([7]; n1): 1.46 nM; IC50 ([7]; n2): 1.15 nM; IC50 ([8]; Mean): 1.01 nM; IC50 ([8]; n1): 0.64 nM; IC50 ([8]; n2): 1.37 nM; IC50 ([9]; Mean): 60.1 nM; IC50 ([9]; n1): 88.2 nM; IC50 ([9]; n2): 32 nM; IC50 ([10]; Mean): 0.83 nM; IC50 ([10]; n1): 0.7 nM; IC50 ([10]; n2): 0.96 nM; IC50 ([11]; Mean): 0.38 nM; IC50 ([11]; n1): 0.4 nM; IC50 ([11]; n2): 0.36 nM; IC50 ([12]; Mean): 0.25 nM; IC50 ([12]; n1): 0.25 nM

Q: For `CC(=O)Nc1cccc(-n2c(=O)n(C3CC3)c(=O)c3c(Nc4ccc(I)cc4F)n(C)c(=O)c(C)c32)c1` [Trametinib, N-(3-{3-cyclopropyl-5-[(2-fluoro-4-iodophenyl)amino]-6,8-dimethyl-2,4,7-trioxo-3,4,6,7-tetrahydropyrido[4,3-d]pyrimidin-1(2H)-yl}phenyl)acetamide], which IC50 ([13]; mean) is on record?
A: 57.5 nM

Q: And the IC50 ([13]; n1)?
A: 32.4 nM

Q: What about the IC50 ([13]; n2) of the same molecule?
A: 82.6 nM

Q: And the IC50 ([14]; mean)?
A: 9.81 nM

Q: And the IC50 ([14]; n1)?
A: 9.01 nM

Q: What about the IC50 ([14]; n2) of the same molecule?
A: 10.6 nM

Q: And the IC50 ([15]; mean)?
A: 1660 nM

Q: And the IC50 ([15]; n1)?
A: 620 nM

Q: What about the IC50 ([15]; n2) of the same molecule?
A: 2710 nM

Q: What about the IC50 ([16]; mean) of the same molecule?
A: 2.82 nM

Q: And the IC50 ([16]; n1)?
A: 2.53 nM

Q: And the IC50 ([16]; n2)?
A: 3.1 nM

Q: What about the IC50 ([17]; mean) of the same molecule?
A: 11.7 nM

Q: And the IC50 ([17]; n1)?
A: 8.21 nM

Q: And the IC50 ([17]; n2)?
A: 15.2 nM

Q: And the “effect on the viability” value [18]?
A: induced dose dependent decrease in cell viability with measurable IC50 for most of the cell lines

Q: Which “in vivo activity in pre-clinical models” value [19] does the source give for `CN(C)CC#Cc1ccc(OCCCc2sc(N3CCc4cccc(C(=O)Nc5nc6ccccc6s5)c4C3)nc2C(=O)O)c(F)c1` [A-1155463] here?
A: exhibited in vivo activity

Q: With `Cc1c(-c2ccc(N3CCc4cccc(C(=O)Nc5nc6ccccc6s5)c4C3)nc2C(=O)O)cnn1CC12CC3CC(CC(C3)C1)C2` [A-1331852] as the molecule, how does the “in vivo activity in pre-clinical models” value [19] read?
A: exhibited in vivo activity

Q: Which IC50 ([13]; mean) does the source give for `Nc1ccn([C@@H]2O[C@H](CO)[C@@H](O)C2(F)F)c(=O)n1` [Gemcitabine, gemcitabine] here?
A: 68.3 nM

Q: And the IC50 ([13]; n1)?
A: 58.8 nM

Q: And the IC50 ([13]; n2)?
A: 77.9 nM

Q: What about the IC50 ([14]; mean) of the same molecule?
A: 241 nM

Q: And the IC50 ([14]; n1)?
A: 406 nM

Q: What about the IC50 ([14]; n2) of the same molecule?
A: 75.2 nM

Q: And the IC50 ([15]; mean)?
A: 10.9 nM

Q: What about the IC50 ([15]; n1) of the same molecule?
A: 9.74 nM

Q: And the IC50 ([15]; n2)?
A: 12 nM

Q: What about the IC50 ([16]; mean) of the same molecule?
A: > 30000 nM

Q: What about the IC50 ([16]; n1) of the same molecule?
A: > 30000 nM

Q: What about the IC50 ([16]; n2) of the same molecule?
A: > 30000 nM

Q: What about the IC50 ([17]; mean) of the same molecule?
A: 13 nM

Q: And the IC50 ([17]; n1)?
A: 10.7 nM

Q: And the IC50 ([17]; n2)?
A: 15.3 nM

Q: And the “effect on the viability” value [18]?
A: induced dose dependent decrease in cell viability with measurable IC50 for most of the cell lines

Q: Which results are given for `CN(C)CC[C@H](CSc1ccccc1)Nc1ccc(S(=O)(=O)NC(=O)c2ccc(N3CCN(Cc4ccccc4-c4ccc(Cl)cc4)CC3)cc2)cc1[N+](=O)[O-]` [ABT-737]?
A: allogeneic T-cell activation, proliferation, and cytotoxicity [20]: prevented; inhibition of lymphocyte proliferation [21]: potent inhibition; disease severity [22]: significant decrease in disease severity; allogeneic T- and B-cell responses [23]: inhibited
